Source: US20120101093A1, “SUBSTITUTED IMIDAZO[1,2-A]PYRIDINE DERIVATIVES, PHARMACEUTICAL COMPOSITIONS, AND METHODS OF USE AS BETA-SECRETASE INHIBITORS” (HIGH POINT PHARMACEUTICALS, LLC, priority 2009, published 2012)

Experiments:
BACE-1 enzyme = biological target: T1, BACE-1 enzyme (Homo sapiens, UniProt P56817); test: BACE Fluorescence Resonance Energy Transfer (FRET) Assay; format: biochemical; conditions: pH 4-4.5, 30 min pre-incubation, about 1.5 hours reaction
T1 construct: purchased R & D Systems 931AS
T1 sequence (P56817 46-457 limits assumed): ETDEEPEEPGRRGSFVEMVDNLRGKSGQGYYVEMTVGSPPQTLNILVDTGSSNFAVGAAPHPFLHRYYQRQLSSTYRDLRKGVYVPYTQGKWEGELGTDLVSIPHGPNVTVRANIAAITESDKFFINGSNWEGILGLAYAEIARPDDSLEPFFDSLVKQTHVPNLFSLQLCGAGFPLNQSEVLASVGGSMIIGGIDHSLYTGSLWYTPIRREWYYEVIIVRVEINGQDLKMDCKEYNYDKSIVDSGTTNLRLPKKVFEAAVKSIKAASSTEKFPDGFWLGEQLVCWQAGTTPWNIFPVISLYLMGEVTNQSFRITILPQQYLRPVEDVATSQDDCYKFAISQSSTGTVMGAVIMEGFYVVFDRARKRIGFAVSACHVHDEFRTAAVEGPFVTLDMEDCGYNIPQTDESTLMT
Method in brief: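 Fluorescence (ex 540, em 585 nm) after ~1.5 h room-temperature cleavage of a quenched rhodamine peptide tracks BACE-1 activity. Enzyme and compound first sit 30 min in pH 4-4.5 acetate buffer with CHAPS, Triton X-100, EDTA, 7.5% DMSO. Values given as IC50 or % inhibition.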

[1] = test system: Aβ1-40 secreted from HEK293 cells stably expressing wildtype human APP695 protein (HEK-APPwt cells); test: Aβ Cell Based Assay (Aβ1-40 secretion, ELISA); conditions: 6 hours incubation, reduction of Aβ1-40 secretion
Procedure: Aβ Cell Based Assay Procedure
In the following assay, the proteolytic activity of BACE in cells exposed to varying concentrations of a compound of interest is measured by observing the amount of Aβ1-40 secreted from HEK293 cells (Human Embryonic Kidney epithelial cell line) stably expressing wildtype human APP695 protein (HEK-APPwt cells).
HEK-APPwt cells were grown in high glucose DMEM (Dulbecco's Modified Eagles Medium SIGMA Cat.# D5796) supplemented with 25 mM HEPES (4-(2-hydroxyethyl)-1-piperazineethanesulfonic acid) (pH 7.4) (Invitrogen Cat.# 15630-114), 0.1 mM NEAA (Non-essential Amino Acids) (BioWhittaker Cat. #13-114E), 10% fetal bovine serum (SIGMA Cat. #F4135) and 250 μg/mL hygromycin (Invitrogen Cat. #10687-010) in T-225 flasks at 37° C. with 5% CO2 and humidity control.
Test compounds were initially prepared in DMSO and diluted with DMEM media containing 2% FBS (Fetal bovine serum). Ten standard compound solutions were prepared having a range of concentrations. The standard compound solutions were used to determine the EC50 of the test compound. The range of concentrations chosen may depend on the compound's predicted potency.
To prepare the cells for the assay, a flask containing HEK-APPwt cells were trypsinized briefly (1 mL trypsin), and once the cells detached, 4 mL of 10% FBS-DMEM was added to the flask. The detached cells were centrifuged at 900 rpm for 5 min to form a pellet.
The HEK-APPwt cell pellet was re-suspended with 10 mL DMEM media containing 2% FBS. 80 μL of the cell suspension was added to each well of a 96-well cell culture plate to give 100×10^4cells/ml. 10 μL of a standard compound solution was added to each well of the 96-well cell culture plate followed by 10 μL of Alamar blue solution. The cells were incubated at 37° C. in a 5% CO2 incubator for 6 hours.
At the end of the incubation, the plates were removed from incubator, and the supernatant was collected. A≈1-40 concentration in the medium was measured by using a commercial Aβ1-X ELISA kit (IBL, Japan Cat. #27729). Briefly, the ELISA plates were coated with an anti-human AO (N)(82E1) mouse IgG monoclonal antibody. A horseradish peroxidase conjugated anti-human Aβ11-28 mouse IgG monoclonal antibody was used for detection. The cell culture supernatant was diluted with EIA buffer +protease inhibitors (kit buffer containing protease inhibitors (1 mL PI/30 mL buffer)). A 100 μL aliquot of the diluted supernatant was added to each well of the ELISA plate and incubated for 6 hrs at 4° C. The ELISA plate was washed 8 times with phosphate buffered saline (PBS) containing 0.05% Tween 20.
A 100 μL of detection antibody was then added and incubated for 1 hour at 4° C. The plate was washed 8 times with PBS buffer containing 0.05% Tween 20 followed by addition of 100 μL of the chromogen tetramethylbenzidine (TMB). The plate was incubated in the dark at room temperature for about 30 min and a stop solution (1N H2SO4) was added.
The intensity of the color developed was measured at 450 nm. The optical density at 450 nm (OD450) is proportional to the concentration of human Aβ1-40 secreted by the cell. As a reference, N-[N-(3,5-difluorophenacetyl-L-alanyl)]-S-phenylglycine t-butyl ester (DAPT, a γ-secretase inhibitor) was used to indicate 100% inhibition of BACE activity. Thus, the assay measures the ability of a compound of interest to reduce Aβ1-40 secretion. For select compounds, compound potency is reported in Table 3 as the EC50 by calculating the percent inhibition at all concentration levels and the data were fit with non-linear curve fitting algorithm using GraphPad Prism.

IC50 (BACE-1 enzyme) [µM] | SMILES | EC50 ([1]; Homo sapiens, HEK293, 6 h) [µM] | EC50 [1] [µM]
0.26 | Cc1cccc2nc(C(=O)Nc3nc4cc(-c5cccc(C(F)(F)F)c5F)ccc4[nH]3)cn12 [Example 53, 5-Methyl-imidazo[1,2-a]pyridine-2-carboxylic acid [5-(2-fluoro-3-trifluoromethyl-phenyl)-1H-benzoimidazol-2-yl]-amide] | 0.23 | –
0.39 | COc1cc(-c2ccc3[nH]c(NC(=O)c4cn5c(C)cccc5n4)nc3c2)cc(C(F)(F)F)c1 [Example 54, 5-Methyl-imidazo[1,2-a]pyridine-2-carboxylic acid [5-(3-methoxy-5-trifluoromethyl-phenyl)-1H-benzoimidazol-2-yl]-amide] | 0.98 | –
0.26 | O=C(Nc1nc2cc(-c3ccc(F)c(C(F)(F)F)c3)ccc2[nH]1)c1cn2c(C(F)(F)F)cccc2n1 [Example 55, 5-Trifluoromethyl-imidazo[1,2-a]pyridine-2-carboxylic acid [5-(4-fluoro-3-trifluoromethyl-phenyl)-1H-benzoimidazol-2-yl]-amide] | 2.36 | –
0.28 | Cc1cccc2nc(C(=O)Nc3nc4ccc(-c5cc(F)cc(Cl)c5)cc4[nH]3)cn12 [Example 56, 5-Methyl-imidazo[1,2-a]pyridine-2-carboxylic acid [6-(3-chloro-5-fluoro-phenyl)-1H-benzoimidazol-2-yl]-amide] | 0.24 | –
0.76 | O=C(Nc1nc2cc(-c3ccc(F)c(C(F)(F)F)c3)ccc2[nH]1)c1cn2c(F)cccc2n1 [Example 58, 5-Fluoro-imidazo[1,2-a]pyridine-2-carboxylic acid [5-(4-fluoro-3-trifluoromethyl-phenyl)-1H-benzoimidazol-2-yl]-amide] | 0.4 | –
0.41 | Cc1ccc2nc(C(=O)Nc3nc4cc(-c5cccc(C(F)(F)F)c5)ccc4[nH]3)cn2c1 [Example 59, 6-Methyl-imidazo[1,2-a]pyridine-2-carboxylic acid [5-(3-trifluoromethyl-phenyl)-1H-benzoimidazol-2-yl]-amide] | 3.16 | –
0.22 | Cc1cccc2nc(C(=O)Nc3nc4cc(/C=C/c5ccc(C(F)(F)F)cc5)ccc4[nH]3)cn12 [Example 61, 5-Methyl-imidazo[1,2-a]pyridine-2-carboxylic acid {5-[(E)-2-(4-trifluoromethyl-phenyl)-vinyl]-1H-benzoimidazol-2-yl}-amide] | 0.28 | –
0.4 | Cc1cccc2nc(C(=O)Nc3nc4cc(CCc5ccc(C(F)(F)F)cc5)ccc4[nH]3)cn12 [Example 62, 5-Methyl-imidazo[1,2-a]pyridine-2-carboxylic acid {5-[2-(4-trifluoromethyl-phenyl)-ethyl]-1H-benzoimidazol-2-yl}-amide] | 0.87 | –
1.15 | Cc1cccc2nc(C(=O)Nc3nc4cc(-c5ccc(F)c(F)c5)ccc4[nH]3)cn12 [Example 63, 5-Methyl-imidazo[1,2-a]pyridine-2-carboxylic acid [5-(3,4-difluoro-phenyl)-1H-benzoimidazol-2-yl]-amide] | 1.32 | –
0.31 | Cc1cccc2nc(C(=O)Nc3nc4cc(-c5ccc(F)c(Cl)c5)ccc4[nH]3)cn12 [Example 64, 5-Methyl-imidazo[1,2-a]pyridine-2-carboxylic acid [5-(3-chloro-4-fluoro-phenyl)-1H-benzoimidazol-2-yl]-amide] | 0.14 | –
0.3 | Cc1cccn2cc(C(=O)Nc3nc4cc(-c5ccc(F)c(Cl)c5)ccc4[nH]3)nc12 [Example 65, 8-Methyl-imidazo[1,2-a]pyridine-2-carboxylic acid [5-(3-chloro-4-fluoro-phenyl)-1H-benzoimidazol-2-yl]-amide] | 0.96 | –
0.48 | Cc1cccc2nc(C(=O)Nc3nc4cc(-c5ccc(Cl)cc5)ccc4[nH]3)cn12 [Example 68, 5-Methyl-imidazo[1,2-a]pyridine-2-carboxylic acid [5-(4-chloro-phenyl)-1H-benzoimidazol-2-yl]-amide] | 1.61 | –
0.46 | Cc1cccn2cc(C(=O)Nc3nc4cc(-c5ccc(Cl)cc5)ccc4[nH]3)nc12 [Example 69, 8-Methyl-imidazo[1,2-a]pyridine-2-carboxylic acid [5-(4-chloro-phenyl)-1H-benzoimidazol-2-yl]-amide] | 6.97 | –
0.26 | Cc1cccc2nc(C(=O)Nc3nc4cc(-c5cc(C(F)(F)F)ccc5F)ccc4[nH]3)cn12 [Example 70, 5-Methyl-imidazo[1,2-a]pyridine-2-carboxylic acid [5-(2-fluoro-5-trifluoromethyl-phenyl)-1H-benzoimidazol-2-yl]-amide] | 0.21 | –
0.36 | Cc1cccn2cc(C(=O)Nc3nc4cc(-c5cc(C(F)(F)F)ccc5F)ccc4[nH]3)nc12 [Example 71, 8-Methyl-imidazo[1,2-a]pyridine-2-carboxylic acid [5-(2-fluoro-5-trifluoromethyl-phenyl)-1H-benzoimidazol-2-yl]-amide] | 1.56 | –
0.62 | CCOC(=O)c1cccc(-c2ccc3[nH]c(NC(=O)c4cn5c(C)cccc5n4)nc3c2)c1 [Example 72, 3-{2-[(5-Methyl-imidazo[1,2-a]pyridine-2-carbonyl)-amino]-1H-benzoimidazol-5-yl}-benzoic acid ethyl ester] | 1.51 | –
0.38 | COc1ccc(-c2ccc3[nH]c(NC(=O)c4cn5c(C)cccc5n4)nc3c2)cc1C(F)(F)F [Example 76, 5-Methyl-imidazo[1,2-a]pyridine-2-carboxylic acid [5-(4-methoxy-3-trifluoromethyl-phenyl)-1H-benzoimidazol-2-yl]-amide] | 0.89 | –
0.61 | Cc1cccc2nc(C(=O)Nc3nc4cc(-c5ccc(C(C)(C)C)cc5)ccc4[nH]3)cn12 [Example 77, 5-Methyl-imidazo[1,2-a]pyridine-2-carboxylic acid [5-(4-tert-butyl-phenyl)-1H-benzoimidazol-2-yl]-amide] | 0.85 | –
0.37 | Cc1cccn2cc(C(=O)Nc3nc4cc(-c5ccc(C(C)(C)C)cc5)ccc4[nH]3)nc12 [Example 78, 8-Methyl-imidazo[1,2-a]pyridine-2-carboxylic acid [5-(4-tert-butyl-phenyl)-1H-benzoimidazol-2-yl]-amide] | 0.98 | –
1.82 | CCOc1ccc(-c2ccc3[nH]c(NC(=O)c4cn5c(C)cccc5n4)nc3c2)cc1Cl [Example 79, 5-Methyl-imidazo[1,2-a]pyridine-2-carboxylic acid [5-(3-chloro-4-ethoxy-phenyl)-1H-benzoimidazol-2-yl]-amide] | – | 1.54
0.81 | CCOc1ccc(-c2ccc3[nH]c(NC(=O)c4cn5c(C)cccc5n4)nc3c2)cc1F [Example 80, 5-Methyl-imidazo[1,2-a]pyridine-2-carboxylic acid [5-(4-ethoxy-3-fluoro-phenyl)-1H-benzoimidazol-2-yl]-amide] | 1.32 | –
2.21 | Cc1cccc2nc(C(=O)Nc3nc4cc(-c5cccc(C#N)c5)ccc4[nH]3)cn12 [Example 82, 5-Methyl-imidazo[1,2-a]pyridine-2-carboxylic acid [5-(3-cyano-phenyl)-1H-benzoimidazol-2-yl]-amide] | 1.1 | –
